Reference: US20230123334A1, “AMINO LIPID COMPOUND, PREPARATION METHOD THEREFOR, AND APPLICATION THEREOF” (SHENZHEN SHENXIN BIOTECHNOLOGY CO., LTD., priority 2020, published 2023)

Assays:
Type in all cases: cell-based
cardiomyocytes [1] = assay: Screening as DNA vectors in cardiomyocytes; set-up: concentration or dose not given beside the values; conditions: method as Example 4
Procedure: Cell line: cardiomyocytes (obtained from induced differentiation of hESC according to reported methods: J. Mol. Cell. Cardiol. 2011, 51, 288-298)
(§1) Medium: DMEM supplemented with 10% fetal bovine serum (Invitrogen)
(§2) Mode of screening: cell transfection on 96-well plates
(§3) Detection (readout): percentage of the number of GFP fluorescent cells relative to the total number of cells (the total number of cells was determined using nucleus dye Hoechst). Lipofectamine Stem (Invitrogen) was used as the positive control, according to the manufacturer's instructions.
Method: the experimental method was basically the same with Example 4.

MCF7 cells [2] = assay: Transfection of MCF7 cell line, mRNA vectors; conditions: 50 ng EGFP mRNA per well
Outline: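 Efficiency was scored as the fraction of GFP-fluorescent cells over all Hoechst-counted cells after delivery of 50 ng EGFP mRNA per well. Cells were MCF7 grown in serum-supplemented DMEM, and Lipofectamine2000 served as reference.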

Hela cells [3] = assay: Transfection of Hela cell line, mRNA vectors; conditions: 50 ng EGFP mRNA per well
Outline: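 Transfection efficiency was scored as GFP-fluorescent cells over Hoechst-stained total nuclei, with Lipofectamine2000 as reference reagent. Each well of HeLa cells, grown in DMEM plus 10% FBS, received 50 ng EGFP mRNA.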

[4] = test system: embryonic stem cells (hESC2); assay: Screening as mRNA vectors in embryonic stem cells; conditions: 50 ng EGFP mRNA per well
Procedure: (§4) Cell line: embryonic stem cells (hESC2, cultured according to reported methods: Stem Cells, 2005, 23, 544-549)
(§5) Medium: mTeSR1 (STEMCELL)
Mode of screening: cell transfection on 96-well plate
(§6) Detection (readout): percentage of the number of GFP fluorescent cells relative to the total number of cells. Lipofectamine Stem was used as the positive control.
Method: the experimental method was basically the same with Example 10, and the mass of EGFP mRNA for transfection was 50 ng per well.

[5] = test system: embryonic stem cells (hESC2); assay: Screening as DNA vectors in embryonic stem cells, flow cytometry; conditions: 75 ng plasmid DNA, 48 hours after transfection, flow cytometer
Description: as §4, §5, §2, §6
Method: an 8-channel pipette was used for sample addition. The contents shown were for a single well of a 96-well flat plate.
1. Stem cells were cultured to 3-5×10^4 cells per well in a 96-well plate treated with matrigel.
2. The compound (0.01 mmol) prepared in Example 1 was dissolved in 1 mL of anhydrous ethanol. After ultrasonically dissolved, 10 μL of the resultant amino lipid solution in ethanol was taken and mixed with 5 μL of DOPE solution in ethanol ([…]). The obtained mixture was then added with 35 μL of 0.2 M sodium acetate buffer (pH 5.6), and vortexed at a constant rotating speed for 30 s. Then, 4 μL was taken from the obtained product and added to 46 μL of 0.02 M sodium acetate buffer (pH 5.6), and vortexed at a constant rotating speed for 30 s to form a liposome solution. 5 μL of this liposome solution was mixed with 75 ng of plasmid DNA (pSin-EGFP-IRES-Puro) dissolved in 5 μL of 0.02 M sodium acetate buffer, and allowed to stay at room temperature for 30 min to form a lipid/DNA transfection complex.
3. 10 μL of the lipid/DNA transfection complex was incubated at room temperature for 30 min, followed by addition of 90 μL mTeSR1 medium was added and mixing with a pipette. 100 μL of the mixture was added to separate wells of a 96-well culture plate and placed in an incubator containing 5% CO2 at 37° C.
4. 48 hours after transfection, the cells were digested with 0.05% Trypsin-EDTA. The cells were resuspended in a PBS buffer and filtered. The cell suspension was placed in a flow cytometer and the number of GFP-expressing cells in no less than 2000 cells was measured so as to obtain the absolute efficiency of cell transfection. The relative efficiency of cell transfection was obtained by comparing the cell transfection efficiency with the positive control Lipofectamine Stem.

MCF7 cells [6] = assay: Transfection of MCF7 cell line, DNA vectors; set-up: concentration or dose not given beside the values; conditions: plasmid DNA, GFP cells / total cells
Outline: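 Read-out: GFP-positive cells as % of all Hoechst-stained nuclei after 96-well transfection of MCF7 cells grown in serum-supplemented DMEM. Positive control was Lipofectamine2000, used per manufacturer's protocol.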

cardiomyocytes [7] = assay: Screening as mRNA vectors in cardiomyocytes; conditions: 50 ng EGFP mRNA per well
Procedure: Cell line: cardiomyocytes (obtained from induced differentiation of hESC according to reported methods: J Mol. Cell. Cardiol. 2011, 51, 288-298)
as §1, §2, §3
Method: the experimental method was basically the same with Example 4, and the mass of EGFP mRNA for transfection was 50 ng per well.

Hela cells [8] = assay: Transfection of Hela cell line, DNA vectors; conditions: 75 ng plasmid DNA, GFP cells / total cells
Outline: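 Amino lipid/DOPE liposomes in sodium acetate pH 5.6 were complexed with 75 ng psin-EGFP-IRES-Puro plasmid for 30 min at room temperature, then mixed with 3-5×10^4 Hela cells in DMEM/10% FBS at 37° C. Hoechst stain after 20-24 h, imaging after a further 20-24 h. Efficiency = GFP-positive cells / total nuclei.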

| Structure (SMILES) | Absolute DNA transfection efficiency in cardiomyocytes (cardiomyocytes [1]) [%] | Absolute mRNA transfection efficiency in MCF7 cells (MCF7 cells [2]) [%] | Absolute mRNA transfection efficiency in Hela cells (Hela cells [3]) [%] | Absolute mRNA transfection efficiency in embryonic stem cells [4] [%] | Absolute DNA transfection efficiency in embryonic stem cells [5] [%] | Absolute DNA transfection efficiency in MCF7 cells (MCF7 cells [6]) [%] | Absolute mRNA transfection efficiency in cardiomyocytes (cardiomyocytes [7]) [%] | Absolute DNA transfection efficiency in Hela cells (Hela cells [8]) [%] |
| --- | --- | --- | --- | --- | --- | --- | --- | --- |
| CCCCCCCCCCCNc1nc(NCCCN(C)C)nc(SCCCCCCCCC)n1 [Compound S9N11D6] | 1.9 | 37.2 | 27.7 | 5.8 | 1.4 | 32.6 | 5.0 | 27.7 |
| CCCCCCCCCCCCNc1nc(NCCN2CCCC2)nc(SCCCCCCCCC)n1 [Compound S9N12D3] | 1.1 | 15.9 | 23.7 | 4.6 | 2.3 | 27.5 | 29.2 | 23.7 |
| CCCCCCCCCCCCNc1nc(NCC2CCN(C)CC2)nc(SCCCCCCCCC)n1 [Compound S9N12D10] | 3.6 | 11.2 | 12.9 | 14.0 | 5.3 | 31.7 | 40.6 | 12.9 |
| CCCCCCCCCCCNc1nc(NCCN2CCN(C)CC2)nc(SCCCCCCCC)n1 [Compound S8N11D5] | 3.0 | 9.1 | 26.5 | 1.6 | 1.1 | 16.7 | 3.7 | 26.5 |
| CCCCCCCCCCCSc1nc(NCCCCCCCCC)nc(NCCCN(C)C)n1 [Compound S11N9D6] | 22.5 | 32.6 | 20.3 | 0.7 | 1.0 | 25.1 | 8.7 | 20.3 |
| CCCCCCCCCCCSc1nc(NCCCCCCCC)nc(NCCN2CCN(C)CC2)n1 [Compound S11N8D5] | 9.1 | 21.2 | 9.6 | 6.9 | 4.0 | 20.1 | 32.2 | 9.6 |
| CCCCCCCCCCCNc1nc(NCC2CCN(C)CC2)nc(SCCCCCCCC)n1 [Compound S8N11D10] | 6.6 | 4.4 | 23.4 | 0.7 | 0.7 | 45.3 | 16.8 | 23.4 |
| CCCCCCCCCCCNc1nc(NCCCN(C)C)nc(SCCCCCCCC)n1 [Compound S8N11D6] | 1.4 | 6.7 | 50.2 | 1.9 | 0.2 | 18.0 | 5.3 | 50.1 |
| CCCCCCCCCCCNc1nc(NCCN2CCCC2)nc(SCCCCCCCC)n1 [Compound S8N11D3] | 0.5 | 8.0 | 26.2 | 2.4 | 0.2 | 3.6 | 6.2 | 26.2 |
| CCCCCCCCCCCNc1nc(NCC2CCN(C)CC2)nc(SCCCCCCCCC)n1 [Compound S9N11D10] | 2.7 | 20.2 | 21.3 | 2.6 | 2.2 | 36.6 | 45.3 | 21.2 |
| CCCCCCCCCCCSc1nc(NCCCCCCCC)nc(NCCCN(C)C)n1 [Compound S11N8D6] | 6.7 | 11.0 | 18.4 | 2.0 | 1.7 | 9.3 | 7.9 | 18.4 |
| CCCCCCCCCCCCSc1nc(NCCCN(C)C)nc(SCCCCCCCC)n1 [Compound S8S12D6] | 1.6 | 50.0 | 6.3 | 7.1 | 3.3 | 34.4 | 44.9 | 6.3 |
| CCCCCCCCCCCCSc1nc(NCCCN2CCOCC2)nc(SCCCCCCCC)n1 [Compound S8S12D8] | 1.9 | 14.0 | 17.2 | 0.7 | 5.9 | 37.7 | 0.7 | 17.2 |
| CCCCCCCCCCCSc1nc(NCCCCCCCCC)nc(NCCN2CCCC2)n1 [Compound S11N9D3] | 0.3 | 26.6 | 11.5 | 22.0 | 3.7 | 13.6 | 8.3 | 11.5 |
